Experimental data published in article PMC7190078 (Journal of medicinal chemistry, 2019).

Tests used:
[1] = target: HDAC3 (Homo sapiens, UniProt O15379); assay: HDAC inhibition, electrophoretic mobility shift assay; type: biochemical; details: EMSA, n = 2
[2] = target: T1, HDAC6 (Homo sapiens, UniProt Q9UBN7); assay: as above; type: biochemical; details: EMSA, n = 2
T1 sequence (Q9UBN7 1-1215): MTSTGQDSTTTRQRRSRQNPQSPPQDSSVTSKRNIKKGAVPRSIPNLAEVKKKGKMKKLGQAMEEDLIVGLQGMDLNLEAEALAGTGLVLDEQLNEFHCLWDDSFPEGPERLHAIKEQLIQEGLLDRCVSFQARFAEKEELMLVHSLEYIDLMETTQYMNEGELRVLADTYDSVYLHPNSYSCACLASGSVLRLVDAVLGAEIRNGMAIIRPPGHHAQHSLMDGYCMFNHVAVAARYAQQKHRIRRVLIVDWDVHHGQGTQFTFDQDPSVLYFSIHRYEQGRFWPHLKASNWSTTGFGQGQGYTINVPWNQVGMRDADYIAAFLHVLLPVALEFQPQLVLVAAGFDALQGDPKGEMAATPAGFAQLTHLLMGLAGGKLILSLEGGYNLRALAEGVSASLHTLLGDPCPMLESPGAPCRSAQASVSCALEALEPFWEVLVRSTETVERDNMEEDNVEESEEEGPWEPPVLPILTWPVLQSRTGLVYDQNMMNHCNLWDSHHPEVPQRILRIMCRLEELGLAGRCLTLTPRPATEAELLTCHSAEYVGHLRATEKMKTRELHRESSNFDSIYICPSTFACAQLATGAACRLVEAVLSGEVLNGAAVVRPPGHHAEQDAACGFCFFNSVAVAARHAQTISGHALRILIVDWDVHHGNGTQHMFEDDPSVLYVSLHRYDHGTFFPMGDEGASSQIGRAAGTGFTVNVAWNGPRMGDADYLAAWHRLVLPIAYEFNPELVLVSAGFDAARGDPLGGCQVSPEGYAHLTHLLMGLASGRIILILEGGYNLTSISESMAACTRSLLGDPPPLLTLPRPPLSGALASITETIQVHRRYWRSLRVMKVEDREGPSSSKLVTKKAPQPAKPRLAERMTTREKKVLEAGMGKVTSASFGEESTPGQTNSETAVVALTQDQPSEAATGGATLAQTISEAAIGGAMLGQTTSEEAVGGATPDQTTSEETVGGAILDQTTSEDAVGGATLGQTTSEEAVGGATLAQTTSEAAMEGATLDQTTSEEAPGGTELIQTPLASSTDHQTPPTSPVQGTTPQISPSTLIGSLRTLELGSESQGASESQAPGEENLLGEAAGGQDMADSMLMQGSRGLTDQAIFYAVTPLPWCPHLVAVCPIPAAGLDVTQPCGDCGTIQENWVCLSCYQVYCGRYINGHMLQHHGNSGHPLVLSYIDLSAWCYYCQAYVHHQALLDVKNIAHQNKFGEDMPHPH

[3] = target: T2, HDAC8 (Homo sapiens, UniProt Q9BY41); assay: as above; type: biochemical
T2 sequence (Q9BY41 1-377): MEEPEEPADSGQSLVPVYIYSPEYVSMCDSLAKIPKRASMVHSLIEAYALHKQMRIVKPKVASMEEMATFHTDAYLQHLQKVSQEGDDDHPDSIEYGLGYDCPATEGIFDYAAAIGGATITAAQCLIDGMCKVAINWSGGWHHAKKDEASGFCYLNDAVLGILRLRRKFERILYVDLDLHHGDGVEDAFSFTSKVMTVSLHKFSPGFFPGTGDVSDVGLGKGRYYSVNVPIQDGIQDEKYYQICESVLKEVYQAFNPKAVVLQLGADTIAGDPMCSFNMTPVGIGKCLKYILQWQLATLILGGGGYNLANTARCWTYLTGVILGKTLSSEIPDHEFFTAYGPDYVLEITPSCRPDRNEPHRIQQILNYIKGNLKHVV

[4] = target: T3, HDAC11 (Homo sapiens, UniProt Q96DB2); assay: as above; type: biochemical; details: EMSA, n = 2
T3 sequence (Q96DB2 1-347): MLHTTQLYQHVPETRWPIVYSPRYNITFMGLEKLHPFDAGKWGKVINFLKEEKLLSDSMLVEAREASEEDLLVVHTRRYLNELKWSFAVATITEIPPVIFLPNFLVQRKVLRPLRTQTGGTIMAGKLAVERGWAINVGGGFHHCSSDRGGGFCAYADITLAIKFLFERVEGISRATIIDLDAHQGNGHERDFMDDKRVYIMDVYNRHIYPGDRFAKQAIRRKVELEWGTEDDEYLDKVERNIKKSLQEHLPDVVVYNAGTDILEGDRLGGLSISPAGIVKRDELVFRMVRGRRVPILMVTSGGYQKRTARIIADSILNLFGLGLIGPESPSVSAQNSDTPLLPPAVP

[5] = target: HDAC1 (Homo sapiens, UniProt Q13547); assay: HDAC inhibition, EMSA at fixed concentration; type: biochemical
[6] = target: HDAC4 (Homo sapiens, UniProt P56524); assay: HDAC inhibition, EMSA at fixed concentration; type: biochemical
[7] = target: T4, HDAC10 (Homo sapiens, UniProt Q969S8); assay: HDAC inhibition, EMSA at fixed concentration; type: biochemical
T4 sequence (Q969S8 1-669): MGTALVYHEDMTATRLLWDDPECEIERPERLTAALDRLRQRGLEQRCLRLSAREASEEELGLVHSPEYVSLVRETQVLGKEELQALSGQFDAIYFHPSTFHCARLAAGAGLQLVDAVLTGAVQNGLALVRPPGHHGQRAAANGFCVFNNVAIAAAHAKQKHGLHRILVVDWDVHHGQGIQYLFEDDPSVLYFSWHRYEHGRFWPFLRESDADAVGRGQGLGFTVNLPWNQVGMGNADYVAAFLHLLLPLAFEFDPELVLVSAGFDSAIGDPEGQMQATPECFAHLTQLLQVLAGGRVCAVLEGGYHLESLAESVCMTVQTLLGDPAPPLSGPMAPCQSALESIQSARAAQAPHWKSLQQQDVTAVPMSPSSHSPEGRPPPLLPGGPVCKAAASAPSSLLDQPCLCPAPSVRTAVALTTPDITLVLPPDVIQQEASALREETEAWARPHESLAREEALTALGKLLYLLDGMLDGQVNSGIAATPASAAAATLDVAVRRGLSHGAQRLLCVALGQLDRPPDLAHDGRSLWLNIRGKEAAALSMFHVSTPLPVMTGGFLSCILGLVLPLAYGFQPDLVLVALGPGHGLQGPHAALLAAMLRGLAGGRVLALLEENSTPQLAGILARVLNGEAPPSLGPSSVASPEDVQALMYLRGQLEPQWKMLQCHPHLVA

[8] = system: MV4–11 AML cells; assay: Cytotoxicity assay; type: cell-based; details: Homo sapiens, MV4-11, read-out: IC50 (cytotoxicity)
[9] = system: MOLM-13 acute myeloid leukemia (AML) cells; assay: Cytotoxicity assay; type: cell-based, human; details: MOLM-13 AML cells
[10] = system: chronic myelogenous leukemia K562 cells; assay: Cytotoxicity assay; type: cell-based, human
[11] = system: MRC-9 lung cells (noncancerous); assay: Cytotoxicity assay; type: cell-based, human
[12] = system: brain tumor stem cell (BTSC) glioblastoma lines; assay: Cytotoxicity assay in GBM BTSCs; type: cell-based, human; details: multiple BTSC glioblastoma lines
[13] = system: D425 primary medulloblastoma (MDB) cells; assay: Cytotoxicity assay in medulloblastoma cells; type: cell-based, human
[14] = system: D458 recurrent MDB cells; assay: Cytotoxicity assay in medulloblastoma cells; type: cell-based, human
[15] = system: PC-3 prostate cancer cells; assay: Cytotoxicity in prostate cancer cells; type: cell-based, human
[16] = Glutathione stability assay using HPLC; type: physicochemical; details: 100-fold excess reduced L-glutathione, HEPES buffer pH 7.4, after 25 h
[17] = Glutathione stability assay using 19F NMR; type: physicochemical; details: 100-fold excess glutathione, after 16 h
[18] = system: STAT3 (total and pY705); assay: Western blot, STAT3 signaling in MDA-MB-231 cells; type: cell-based, human; details: at 10-fold of the IC50
[19] = system: STAT5b (total and pY694); assay: Western blot, STAT5 signaling in MV4–11 cells; type: cell-based, human; details: at 10 μM
[20] = Mouse plasma protein binding assay; type: in vitro ADME; details: both, CD-1, mouse
[21] = Caco-2 permeability assay; type: in vitro ADME; details: human
[22] = Single-dose pharmacokinetics in NSG mice; type: in vivo, mouse
[23] = Serum concentration after 5 days daily dosing in NSG mice; type: in vivo, mouse; details: for concentration at 5 h: NSG, mouse, serum, intraperitoneal
[24] = system: NSG mice; assay: Toxicity study; type: in vivo
[25] = system: equivalent immunodeficient mice; assay: Orthotopic tumor model in immunodeficient mice, survival

Chain of HDAC1 (Q13547 whole entry): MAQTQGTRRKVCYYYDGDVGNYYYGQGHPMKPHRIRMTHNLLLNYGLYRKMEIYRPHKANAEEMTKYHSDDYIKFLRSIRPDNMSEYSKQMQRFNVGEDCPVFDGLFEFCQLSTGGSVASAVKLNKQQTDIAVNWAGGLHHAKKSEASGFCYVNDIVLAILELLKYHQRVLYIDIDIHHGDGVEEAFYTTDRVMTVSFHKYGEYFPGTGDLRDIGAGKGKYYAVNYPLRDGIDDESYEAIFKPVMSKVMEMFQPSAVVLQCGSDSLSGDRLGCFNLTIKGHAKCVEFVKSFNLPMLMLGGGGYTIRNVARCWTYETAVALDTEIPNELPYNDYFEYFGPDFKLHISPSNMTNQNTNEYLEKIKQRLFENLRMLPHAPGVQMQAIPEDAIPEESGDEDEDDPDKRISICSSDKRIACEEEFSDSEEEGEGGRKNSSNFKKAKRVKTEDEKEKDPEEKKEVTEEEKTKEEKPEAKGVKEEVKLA
Chain of HDAC4 (P56524 whole entry): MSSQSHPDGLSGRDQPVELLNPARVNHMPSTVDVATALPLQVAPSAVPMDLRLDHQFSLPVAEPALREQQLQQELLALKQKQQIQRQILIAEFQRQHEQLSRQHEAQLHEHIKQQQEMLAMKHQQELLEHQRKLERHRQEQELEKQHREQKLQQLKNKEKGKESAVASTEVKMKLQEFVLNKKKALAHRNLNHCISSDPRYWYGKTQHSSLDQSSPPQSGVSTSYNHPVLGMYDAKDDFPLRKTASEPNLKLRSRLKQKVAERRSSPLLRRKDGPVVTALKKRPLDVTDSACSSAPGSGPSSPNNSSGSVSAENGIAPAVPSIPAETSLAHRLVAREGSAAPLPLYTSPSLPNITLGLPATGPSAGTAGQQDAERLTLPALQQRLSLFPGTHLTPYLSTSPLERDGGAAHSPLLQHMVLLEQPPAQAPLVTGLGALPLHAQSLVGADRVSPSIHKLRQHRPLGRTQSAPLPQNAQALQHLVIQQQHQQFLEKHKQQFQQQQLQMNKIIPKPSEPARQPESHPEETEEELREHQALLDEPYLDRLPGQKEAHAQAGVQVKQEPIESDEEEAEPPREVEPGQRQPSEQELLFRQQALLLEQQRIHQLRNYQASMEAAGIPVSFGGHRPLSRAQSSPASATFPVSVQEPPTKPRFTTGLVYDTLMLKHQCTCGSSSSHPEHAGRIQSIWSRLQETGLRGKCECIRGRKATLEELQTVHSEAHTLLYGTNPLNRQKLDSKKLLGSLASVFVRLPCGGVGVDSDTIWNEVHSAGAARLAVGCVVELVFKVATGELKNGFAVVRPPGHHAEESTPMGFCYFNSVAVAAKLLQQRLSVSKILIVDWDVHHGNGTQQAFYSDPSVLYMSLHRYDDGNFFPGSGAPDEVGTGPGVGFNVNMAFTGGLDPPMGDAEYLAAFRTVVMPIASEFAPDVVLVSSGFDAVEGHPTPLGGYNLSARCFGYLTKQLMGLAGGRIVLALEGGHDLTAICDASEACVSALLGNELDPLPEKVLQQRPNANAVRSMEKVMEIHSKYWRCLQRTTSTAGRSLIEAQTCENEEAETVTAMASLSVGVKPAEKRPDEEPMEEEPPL
Chain of HDAC3 (O15379 whole entry): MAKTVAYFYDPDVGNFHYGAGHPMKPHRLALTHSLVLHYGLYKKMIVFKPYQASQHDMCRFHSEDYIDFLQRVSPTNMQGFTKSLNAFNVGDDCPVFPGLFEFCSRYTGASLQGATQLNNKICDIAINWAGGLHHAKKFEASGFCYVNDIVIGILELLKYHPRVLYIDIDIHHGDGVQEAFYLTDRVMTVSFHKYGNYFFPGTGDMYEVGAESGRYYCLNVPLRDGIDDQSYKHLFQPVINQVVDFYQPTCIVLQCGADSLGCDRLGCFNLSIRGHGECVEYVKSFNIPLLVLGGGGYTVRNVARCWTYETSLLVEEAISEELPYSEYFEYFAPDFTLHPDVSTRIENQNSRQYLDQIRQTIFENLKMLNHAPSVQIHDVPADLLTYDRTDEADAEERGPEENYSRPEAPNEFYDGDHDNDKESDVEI
Chain of HDAC3 (Q9Y618 395-489 partner limits assumed): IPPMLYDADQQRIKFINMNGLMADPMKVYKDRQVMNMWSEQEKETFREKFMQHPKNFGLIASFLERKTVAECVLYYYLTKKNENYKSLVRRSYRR

Q: Which inhibition at 10 µM ([1]; read-out: % inhibition HDAC3, at 10 μM) does the source give for CC(C)(C)c1ccc(CN(C(=O)CN(Cc2c(F)c(F)c(F)c(F)c2F)S(=O)(=O)c2ccc(F)cc2)c2ccc(C(=O)NO)cc2)cc1 [AES-135, 4-(N-(4-(tert-Butyl)benzyl)-2-((4-fluoro-N-((perfluorophenyl)-methyl)phenyl)sulfonamido)acetamido)-N-hydroxybenzamide] here?
A: > 90%

Q: And the inhibition at 10 µM ([2]; read-out: % inhibition HDAC6, at 10 μM)?
A: > 90%

Q: And the IC50 [3]?
A: 1100 nM

Q: And the inhibition at 10 µM ([3]; read-out: % inhibition HDAC8, at 10 μM, EMSA, n = 2)?
A: > 90%

Q: What about the inhibition at 10 µM ([4]; read-out: % inhibition HDAC11, at 10 μM) of the same molecule?
A: > 90%

Q: And the inhibition at 10 µM ([5]; read-out: % inhibition HDAC1, at 10 μM, n = 2)?
A: ≥ 70%

Q: And the inhibition at 10 µM ([6]; read-out: % inhibition HDAC4, at 10 μM, n = 2)?
A: < 20%

Q: What about the inhibition at 10 µM ([7]; read-out: % inhibition HDAC10, at 10 μM, n = 2) of the same molecule?
A: ≥ 70%

Q: And the IC50 [8]?
A: 1880 ± 890 nM

Q: And the cytotoxic potency [9]?
A: low μM potency

Q: What about the sensitivity to cytotoxicity [10] of the same molecule?
A: resistant

Q: And the “toxicity in noncancerous cells” value [11]?
A: minimal toxicity

Q: What about the cytotoxic potency [12] of the same molecule?
A: low μM potency

Q: And the cytotoxic potency [13]?
A: nM activity

Q: What about the cytotoxic potency [14] of the same molecule?
A: nM activity

Q: And the cytotoxic potency [15]?
A: low μM potency

Q: And the “stability to glutathione (HPLC)” value [16]?
A: No discernible reaction was observed

Q: What about the “stability to glutathione (19F NMR)” value [17] of the same molecule?
A: no displacement of fluoride was observed

Q: And the “effect on total STAT3 and pY705 STAT3 (Western blot)” value [18]?
A: neither total STAT3 nor pY705 STAT3 was significantly reduced

Q: What about the “effect on total STAT5b and pY694 STAT5b (Western blot)” value [19] of the same molecule?
A: failed to suppress total STAT5b or pY694 STAT5b

Q: And the recovery at 6 h ([20]; mouse plasma)?
A: 16 to 20%

Q: And the fraction unbound at 6 h ([20]; plasma)?
A: 0.004

Q: What about the Papp A→B at 5 µM [21] of the same molecule?
A: 0.27 ×10⁻⁶ cm/s

Q: And the efflux ratio at 5 µM [21]?
A: 3.83

Q: What about the “duration of micromolar (μM) concentrations” value ([22]; IP injection) of the same molecule?
A: > 10 h

Q: And the clearance rate ([22]; single 20 mg/kg IP, assuming bioavailability to be 100%)?
A: 0.004 L/h

Q: What about the “increase in blood concentration from quadrupling the dose” value ([23]; 40 vs 10 mg/kg) of the same molecule?
A: ~5.7 fold

Q: What about the concentration at 5 h ([23]; 10 mg/kg) of the same molecule?
A: 323 ng/mL

Q: What about the concentration at 5 h ([23]; 40 mg/kg) of the same molecule?
A: 1830 ng/mL

Q: What about the “toxicity assessed via weight loss” value ([24]; 60 mg/kg IP daily for 4–5 days, n = 6) of the same molecule?
A: no significant weight loss

Q: What about the “toxicity based on percentage weight loss compared to vehicle control” value ([24]; 10 and 40 mg/kg IP once a day for 5 days) of the same molecule?
A: No visible toxicity

Q: And the survival advantage [25]?
A: no obvious survival advantage

Q: Which results are given for CN(O)C(=O)c1ccc(N(Cc2ccc(C(C)(C)C)cc2)C(=O)CN(Cc2c(F)c(F)c(F)c(F)c2F)S(=O)(=O)c2ccc(F)cc2)cc1 [compound 60, 4-(N-(4-(tert-Butyl)benzyl)-2-((4-fluoro-N-((perfluorophenyl)-methyl)phenyl)sulfonamido)acetamido)-N-hydroxy-N-methylbenzamide]?
A: % inhibition HDAC3 ([1]; at 10 μM): 0%; % inhibition HDAC6 ([2]; at 10 μM): 12%; % inhibition HDAC8 ([3]; at 10 μM, EMSA, n = 2): 0%; % inhibition HDAC11 ([4]; at 10 μM): 64%; % inhibition HDAC1 ([5]; at 10 μM, n = 2): 0%; % inhibition HDAC4 ([6]; at 10 μM, n = 2): 0%; % inhibition HDAC10 ([7]; at 10 μM, n = 2): 0%
